Source: ChEMBL document CHEMBL4270614, “Tuning the biological activity of cationic anthraquinone analogues specifically toward Staphylococcus aureus” (Eur J Med Chem, 2018)
Converted amounts (≈) assume the structure as drawn.

Experiments:
Staphylococcus aureus [1] = experiment: Antibacterial activity against methicillin-resistant Staphylococcus aureus ATCC 33591 measured after 12 to 18 hrs; format: functional
COLO 205 = experiment: Cytotoxicity against human COLO205 cells after 48 hrs by MTT assay; format: cell-based; conditions: COLO 205, 48 h
Staphylococcus aureus [2] = experiment: Antibacterial activity against methicillin-resistant Staphylococcus aureus ATCC 43300 measured after 12 to 18 hrs; format: functional
BEAS-2B = experiment: Cytotoxicity against human BEAS2B cells after 48 hrs by MTT assay; format: cell-based
Escherichia coli [3] = experiment: Antibacterial activity against Escherichia coli ATCC 25922 measured after 12 to 18 hrs; format: functional
Staphylococcus aureus [4] = experiment: Antibacterial activity against Staphylococcus aureus ATCC 25923 measured after 12 to 18 hrs; format: functional
[5] = Selectivity index, ratio of IC50 for human CCD-841-CoN cells to IC50 for human COLO205 cells; conditions: CCD-841-CoN cells versus COLO205 cells, read-out: Ratio IC50
A549 = experiment: Cytotoxicity against human A549 cells after 48 hrs by MTT assay; format: cell-based; conditions: A549, 48 h
CCD-841CoN = experiment: Cytotoxicity against human CCD-841-CoN cells after 48 hrs by MTT assay; format: cell-based
[6] = Selectivity index, ratio of IC50 for human BEAS2B cells to IC50 for human A549 cells; conditions: BEAS2B cells versus A549 cells, read-out: Ratio IC50
Escherichia coli [7] = experiment: Antibacterial activity against Escherichia coli ATCC 25922; format: functional
Staphylococcus aureus [8] = experiment: Antibacterial activity against Staphylococcus aureus ATCC 25923; format: functional

Compound	MIC (Staphylococcus aureus [1]) [µg/mL]	IC50 (COLO 205) [µg/mL]	MIC (Staphylococcus aureus [2]) [µg/mL]	IC50 (BEAS-2B) [µg/mL]	MIC (Escherichia coli [3]) [µg/mL]	MIC (Staphylococcus aureus [4]) [µg/mL]	selectivity ratio [5]	IC50 (A549) [µg/mL]	IC50 (CCD-841CoN) [µg/mL]	selectivity ratio [6]	MIC (Escherichia coli [7]) [µg/mL]	MIC (Staphylococcus aureus [8]) [µg/mL]
COc1ccc(-n2n[n+](C)c3c2C(=O)c2ccccc2C3=O)cc1.O=S(=O)([O-])C(F)(F)F	0.5	0.7	2	5.8	> 128	1 to 2	8.41	0.78	5.89	7.44	–	–
C[n+]1nn(-c2ccc(F)cc2)c2c1C(=O)c1ccccc1C2=O.O=S(=O)([O-])C(F)(F)F	0.5	2.86	1	14.2	> 128	1	2.85	2.22	8.16	6.44	–	–
CCCCCCCC[n+]1nn(-c2ccc([N+](=O)[O-])cc2)c2c1C(=O)c1ccccc1C2=O.O=S(=O)([O-])C(F)(F)F	16	8.53	32	21	–	8	3.63	15.6	31	4.76	–	–
CCCCCC[n+]1nn(-c2ccc([N+](=O)[O-])cc2)c2c1C(=O)c1ccccc1C2=O.O=S(=O)([O-])C(F)(F)F	1	21.2	128	38.6	–	2 to 4	1.89	48.9	40.2	0.79	–	–
CC[n+]1nn(-c2ccc([N+](=O)[O-])cc2)c2c1C(=O)c1ccccc1C2=O.O=S(=O)([O-])C(F)(F)F	1 to 2	7.72	4 to 8	43.6	–	8 to 16	6.64	7.4	51.3	5.89	–	–
COc1ccc(-n2n[n+](-c3ccc(OC)c(OC)c3)c3c2C(=O)c2ccccc2C3=O)cc1OC.O=S(=O)([O-])C(F)(F)F	2	–	4	3.76	> 128	4	–	1.6	–	2.35	–	–
CC[n+]1nn(-c2ccc(OC)cc2)c2c1C(=O)c1ccccc1C2=O.O=S(=O)([O-])C(F)(F)F	2	0.82	2	5	128	4 to 8	9.57	0.73	7.85	6.85	–	–
CCCC[n+]1nn(-c2ccc([N+](=O)[O-])cc2)c2c1C(=O)c1ccccc1C2=O.O=S(=O)([O-])C(F)(F)F	2	43.2	8 to 16	49.8	–	4	0.99	44.9	42.8	1.11	–	–
C[n+]1nn(-c2ccc(C#N)cc2)c2c1C(=O)c1ccccc1C2=O.O=S(=O)([O-])C(F)(F)F	1	5.91	2	30.1	> 128	2	5.52	5.2	32.6	–	–	–
CCCCCCCCCC[n+]1nn(-c2ccc([N+](=O)[O-])cc2)c2c1C(=O)c1ccccc1C2=O.O=S(=O)([O-])C(F)(F)F	8	7.29	8 to 16	7.39	–	2 to 4	4.2	7.02	30.6	1.05	–	–
CC[n+]1nn(-c2ccc(Cl)cc2)c2c1C(=O)c1ccccc1C2=O.O=S(=O)([O-])C(F)(F)F	1	0.78	2	4.22	> 128	2 to 4	8.53	0.85	6.65	4.96	–	–
CCCCCCCCn1n[n+](CC)c2c1C(=O)c1ccccc1C2=O.O=S(=O)([O-])C(F)(F)F	–	–	–	–	–	–	–	–	–	–	> 128	0.25 to 0.5
C[n+]1nn(-c2ccc([N+](=O)[O-])cc2)c2c1C(=O)c1ccccc1C2=O.O=S(=O)([O-])C(F)(F)F	1	4.64	2	52.9	> 128	2	12	3.5	55.8	15.1	–	–
NC[C@@H]1O[C@H](O[C@H]2[C@@H](O)[C@H](O[C@@H]3[C@@H](O)[C@H](N)C[C@H](N)[C@H]3O[C@H]3O[C@H](CN)[C@@H](O)[C@H](O)[C@H]3N)O[C@@H]2CO)[C@H](N)[C@@H](O)[C@@H]1O [FRAMYCETIN]	256 (≈ 416 µM)	–	> 256	–	2 (≈ 3.25 µM)	2 to 4 (≈ 3.25 to 6.51 µM)	–	–	–	–	–	–
CN[C@H](CC(C)C)C(=O)N[C@H]1C(=O)N[C@@H](CC(N)=O)C(=O)N[C@H]2C(=O)N[C@H]3C(=O)N[C@H](C(=O)N[C@H](C(=O)O)c4cc(O)cc(O)c4-c4cc3ccc4O)[C@H](O)c3ccc(c(Cl)c3)Oc3cc2cc(c3O[C@@H]2O[C@H](CO)[C@@H](O)[C@H](O)[C@H]2O[C@H]2C[C@](C)(N)[C@H](O)[C@H](C)O2)Oc2ccc(cc2Cl)[C@H]1O [VANCOMYCIN]	–	–	32 (≈ 22.1 µM)	–	> 256	–	–	–	–	–	–	–
